According to patent US9403830B2, “Inhibitors of leukotriene production” (Boehringer Ingelheim International GmbH, priority 2012, dated 2016):

Legend:
[1] = test system: LTB4 synthesis in human whole blood; experiment: human whole blood (HWB) assay, inhibition of LTB4 production; type: cell-based; settings: heparinized human whole blood, calcimycin 20 μM stimulation, plasma LTB4
Method in brief: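 Plasma LTB4, quantified by HTRF immunoassay, is the read-out after calcimycin challenge (20 μM final, 30 min, 37 °C) of heparinized whole blood that had been pretreated with compound for 15 min at 37 °C; values given as IC50.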

human LTA4 hydrolase = target: T1, human LTA4 hydrolase (Homo sapiens, UniProt P09960); experiment: LTA4H Enzyme assay (peptidase, Arg-AMC cleavage); type: biochemical; settings: LTA4H enzyme 1 nM, Arg-AMC substrate 50 μM, room temperature 1 h, fluorescence 380/460 nm
T1 sequence (P09960 1-611): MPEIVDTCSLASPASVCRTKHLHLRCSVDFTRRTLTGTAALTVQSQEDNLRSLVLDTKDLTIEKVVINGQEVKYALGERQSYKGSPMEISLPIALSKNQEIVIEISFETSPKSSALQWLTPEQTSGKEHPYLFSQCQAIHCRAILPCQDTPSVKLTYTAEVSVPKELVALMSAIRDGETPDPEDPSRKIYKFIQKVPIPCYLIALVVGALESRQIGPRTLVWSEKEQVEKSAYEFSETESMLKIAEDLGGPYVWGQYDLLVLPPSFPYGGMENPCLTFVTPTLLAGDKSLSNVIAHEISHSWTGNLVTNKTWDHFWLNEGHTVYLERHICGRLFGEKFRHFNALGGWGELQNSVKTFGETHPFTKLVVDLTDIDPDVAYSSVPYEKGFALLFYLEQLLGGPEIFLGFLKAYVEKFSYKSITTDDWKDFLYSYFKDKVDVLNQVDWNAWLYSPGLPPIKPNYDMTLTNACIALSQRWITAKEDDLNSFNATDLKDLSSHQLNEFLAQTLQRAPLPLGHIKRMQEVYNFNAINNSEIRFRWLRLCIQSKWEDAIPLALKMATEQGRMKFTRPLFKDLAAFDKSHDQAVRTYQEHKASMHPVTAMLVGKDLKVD
Method in brief: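 Human LTA4H (1 nM final) incubated with compound and Arg-AMC (50 μM final) in 50 mM Tris-HCl pH 7.5, 100 mM KCl, 0.5% BSA, 1 h at room temperature. Product read as AMC fluorescence (ex 380/em 460 nm); IC50 reported.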

Structure (SMILES) | IC50 [1] [nM] | IC50 (human LTA4 hydrolase) [nM]
C[C@@H]1CCCCN1Cc1nc2cc(Oc3ccc(-c4ccn[nH]4)cc3)ccc2[nH]1 [Example 165, 2-((R)-2-Methyl-piperidin-1-ylmethyl)-5-[4-(2H-pyrazol-3-yl)-phenoxy]-1H-benzoimidazole] | 120 | 0.075
c1cc(-c2ccc(Oc3ccc4c(cnn4CCCN4CCCC4)c3)cc2)[nH]n1 [Example 79, 5-[4-(2H-Pyrazol-3-yl)-phenoxy]-1-(3-pyrrolidin-1-yl-propyl)-1H-indazole] | 98 | 0.3
O=C1CCCN1C1CCN(CC2Cc3ccc(Oc4ccc(-c5ccn[nH]5)cc4)cc3O2)CC1 (stereo not drawn) [Example 198, 1-(1-{6-[4-(2H-Pyrazol-3-yl)-phenoxy]-2,3-dihydro-benzofuran-2-ylmethyl}-piperidin-4-yl)-pyrrolidin-2-one] | 180 | 0.35
c1cc(-c2ccc(Oc3ccc4nn(CCNCC5CCOCC5)cc4c3)cc2)[nH]n1 [Example 206, (2-{5-[4-(2H-Pyrazol-3-yl)-phenoxy]-indazol-2-yl}-ethyl)-(tetrahydro-pyran-4-ylmethyl)-amine] | 210 | 0.42
CCNCc1nc2cc(Oc3ccc(-c4ccn[nH]4)cc3)ccc2[nH]1 [Example 191, Ethyl-{5-[4-(2H-pyrazol-3-yl)-phenoxy]-1H-benzoimidazol-2-ylmethyl}-amine] | 170 | 0.18
CC[C@@H](C)NCc1nc2cc(Oc3ccc(-c4ccn[nH]4)cc3)ccc2[nH]1 [Example 180, ((R)-sec-Butyl)-{5-[4-(2H-pyrazol-3-yl)-phenoxy]-1H-benzoimidazol-2-ylmethyl}-amine] | 150 | 0.13
CC(=O)NC1CCN(CC2Cc3ccc(Oc4ccc(-c5ccn[nH]5)cc4)cc3O2)CC1 (stereo not drawn) [Example 219, N-(1-[6-[4-(2H-Pyrazol-3-yl)-phenoxy]-2,3-dihydro-benzofuran-2-ylmethyl]-piperidin-4-yl)-acetamide] | 110 | 0.22
COCCN1CCN(Cc2nc3cc(Oc4ccc(-c5ccn[nH]5)cc4)ccc3[nH]2)CC1 [Example 61, 2-[4-(2-Methoxy-ethyl)-piperazin-1-ylmethyl]-5-[4-(2H-pyrazol-3-yl)-phenoxy]-1H-benzoimidazole] | 140 | 0.21
c1cc(-c2ccc(Cc3ccc4nc(CN5CCOCC5)[nH]c4c3)cc2)[nH]n1 [Example 60, 2-Morpholin-4-ylmethyl-6-[4-(2H-pyrazol-3-yl)-benzyl]-1H-benzoimidazole] | 140 | 0.23
c1cc(-c2ccc(Oc3ccc4[nH]c(CN5CCCOCC5)nc4c3)cc2)[nH]n1 [Example 175, 2-[1,4]Oxazepan-4-ylmethyl-5-[4-(2H-pyrazol-3-yl)-phenoxy]-1H-benzoimidazole] | 140 | 0.17
CN(C)CCn1ncc2cc(Oc3ccc(-c4ccn[nH]4)cc3)ccc21 [Example 162, Dimethyl-(2-{5-[4-(2H-pyrazol-3-yl)-phenoxy]-indazol-1-yl}-ethyl)-amine] | 120 | 0.61
O=C1CC[C@@H](Cn2cc3cc(Oc4ccc(-c5ccn[nH]5)cc4)ccc3n2)N1 [Example 251, (S)-5-{5-[4-(2H-Pyrazol-3-yl)-phenoxy]-indazol-2-ylmethyl}-pyrrolidin-2-one] | 220 | 0.87
C[C@H]1COC[C@H](C)N1Cc1nc2cc(Oc3ccc(-c4ccn[nH]4)cc3)ccc2[nH]1 [Example 55, 2-((3S,5S)-3,5-Dimethyl-morpholin-4-ylmethyl)-5-[4-(2H-pyrazol-3-yl)-phenoxy]-1H-benzoimidazole] | 100 | 0.13
O=C1OCCN1Cc1cn2cc(Oc3ccc(-c4ccn[nH]4)cc3)ccc2n1 [Example 255, 3-{6-[4-(2H-Pyrazol-3-yl)-phenoxy]-imidazo[1,2-a]pyridin-2-ylmethyl}-oxazolidin-2-one] | 360 | 1.7
c1cc(-c2ccc(Oc3ccc4[nH]c(CN5CCC(CN6CCOCC6)CC5)nc4c3)cc2)[nH]n1 [Example 225, 2-(4-Morpholin-4-ylmethyl-piperidin-1-ylmethyl)-5-[4-(2H-pyrazol-3-yl)-phenoxy]-1H-benzoimidazole] | 130 | 0.13

The remaining lines, values ahead:

IC50 [1] [nM] | IC50 (human LTA4 hydrolase) [nM] | Structure (SMILES)
220 | 2 | N#C[C@@H]1CCN(Cc2ccc3cc(Oc4ccc(-c5ccn[nH]5)cn4)ccc3n2)C1 [Example 107, (R)-1-{6-[5-(2H-Pyrazol-3-yl)-pyridin-2-yloxy]-quinolin-2-ylmethyl}-pyrrolidine-3-carbonitrile]
380 | 3.9 | NC(=O)N1CCN(Cc2ccc3cc(Oc4ccc(-c5ccn[nH]5)cn4)ccc3n2)CC1 [Example 43, 4-{6-[5-(2H-Pyrazol-3-yl)-pyridin-2-yloxy]-quinolin-2-ylmethyl}-piperazine-1-carboxylic acid amide]
140 | 0.65 | CC1(O)CN(Cc2ccc3cc(Oc4ccc(-c5ccn[nH]5)cn4)ccc3n2)C1 [Example 174, 3-Methyl-1-{6-[5-(2H-pyrazol-3-yl)-pyridin-2-yloxy]-quinolin-2-ylmethyl}-azetidin-3-ol]
110 | 0.51 | c1cc(-c2ccc(Oc3ccc4c(c3)OC(CN3CCCC3)C4)nc2)[nH]n1 (stereo not drawn) [Example 126, 5-(2H-Pyrazol-3-yl)-2-(2-pyrrolidin-1-ylmethyl-2,3-dihydro-benzofuran-6-yloxy)-pyridine]
800 | 5.7 | C[C@@H](NCc1ccc2cc(Oc3ccc(-c4ccn[nH]4)cn3)ccc2n1)C(N)=O [Example 34, (R)-2-({6-[5-(2H-Pyrazol-3-yl)-pyridin-2-yloxy]-quinolin-2-ylmethyl}-amino)-propionamide]
150 | 0.53 | O=C(CO)N1CCN(Cc2ccc3cc(Oc4ccc(-c5ccn[nH]5)cc4)ccc3n2)CC1 [Example 10, 2-hydroxy-1-(4-{6-[4-(2H-pyrazol-3-yl)-phenoxy]-quinolin-2-ylmethyl}-piperazin-1-yl)-ethanone]
180 | 0.65 | O=C1OCCN1C1CCN(Cc2ccc3cc(Oc4ccc(-c5ccn[nH]5)cn4)ccc3n2)CC1 [Example 11, 3-(1-{6-[5-(2H-pyrazol-3-yl)-pyridin-2-yloxy]-quinolin-2-ylmethyl}-piperidin-4-yl)-oxazolidin-2-one]
150 | 0.55 | CC(=O)N1CCN(Cc2ccc3cc(Oc4ccc(-c5cc[nH]n5)cn4)ccc3n2)CC1 [Example 231, 1-(4-{6-[5-(1H-Pyrazol-3-yl)-pyridin-2-yloxy]-quinolin-2-ylmethyl}-piperazin-1-yl)-ethanone]
110 | 0.5 | CNCc1ccc2cc(Oc3ccc(-c4ccn[nH]4)cn3)ccc2n1 [Example 25, Methyl-{6-[5-(2H-pyrazol-3-yl)-pyridin-2-yloxy]-quinolin-2-ylmethyl}-amine]
160 | 1.7 | c1cc(-c2cnc(Oc3ccc4nc(CN5CCCC5)ccc4c3)nc2)[nH]n1 [Example 220, 6-[5-(2H-Pyrazol-3-yl)-pyrimidin-2-yloxy]-2-pyrrolidin-1-ylmethyl-quinoline]
260 | 0.14 | OC(C1CCN(Cc2nc3cc(Oc4ccc(-c5ccn[nH]5)cc4)ccc3[nH]2)CC1)C(F)(F)F (stereo not drawn) [Example 71, 2,2,2-Trifluoro-1-(1-{5-[4-(2H-pyrazol-3-yl)-phenoxy]-1H-benzoimidazol-2-ylmethyl}-piperidin-4-yl)-ethanol]
220 | 0.46 | NC(=O)C1CCN(Cc2ccc3cc(Oc4ccc(-c5ccn[nH]5)cn4)ccc3c2)CC1 [Example 5, 1-{6-[5-(2H-Pyrazol-3-yl)-pyridin-2-yloxy]-naphthalen-2-ylmethyl}-piperidine-4-carboxylic acid amide]
250 | 1.2 | COC1CCN(Cc2ccc3cc(Oc4ccc(-c5ccn[nH]5)cn4)ccc3n2)CC1 [Example 212, 2-(4-Methoxy-piperidin-1-ylmethyl)-6-[5-(2H-pyrazol-3-yl)-pyridin-2-yloxy]-quinoline]
860 | 8.9 | O=C1NCC[C@@H]1NCc1ccc2cc(Oc3ccc(-c4ccn[nH]4)cn3)ccc2n1 [Example 49, (S)-3-({6-[5-(2H-Pyrazol-3-yl)-pyridin-2-yloxy]-quinolin-2-ylmethyl}-amino)-pyrrolidin-2-one]
320 | 0.99 | CC(=O)NC[C@@H]1[C@H]2CN(Cc3ccc4cc(Oc5ccc(-c6ccn[nH]6)cn5)ccc4n3)C[C@@H]12 [Example 41, N-((1α,5α,6α)-3-{6-[5-(2H-Pyrazol-3-yl)-pyridin-2-yloxy]-quinolin-2-ylmethyl}-3-aza-bicyclo[3.1.0]hex-6-ylmethyl)-acetamide]
